Laboratory results reported in patent publication US6376521B1, “A3 adenosine receptor antagonists” (The United States of America as represented by the …, priority 1998, dated 2002).
Read-outs that look alike come from different tables or passages of the source. Each block holds one compound with its values, some of them ahead of it.

Tests used:
[1] = target: T1, A2A adenosine receptors (Rattus norvegicus, UniProt P30543); experiment: Displacement of specific [3H]CGS 21680 binding in rat striatal membranes; details: for Ki: [3H]CGS 21680, rat striatal membranes, n = 3-6, read-out: rA2A Ki ± S.E.M.
T1 construct: from tissue

[2] = target: T2, human A3 receptors (Homo sapiens, UniProt P0DMS8); experiment: Displacement of specific [125I]AB-MECA binding at human A3 receptors expressed in HEK cells, in membranes; details: for Ki: [125I]AB-MECA, HEK cell membranes, n = 3-4, read-out: hA3 Ki ± S.E.M.; for rA1/hA3: ratio of affinities rat A1 vs human A3
T2 construct: expressed in transfected cells
T2 sequence (P0DMS8 1-318): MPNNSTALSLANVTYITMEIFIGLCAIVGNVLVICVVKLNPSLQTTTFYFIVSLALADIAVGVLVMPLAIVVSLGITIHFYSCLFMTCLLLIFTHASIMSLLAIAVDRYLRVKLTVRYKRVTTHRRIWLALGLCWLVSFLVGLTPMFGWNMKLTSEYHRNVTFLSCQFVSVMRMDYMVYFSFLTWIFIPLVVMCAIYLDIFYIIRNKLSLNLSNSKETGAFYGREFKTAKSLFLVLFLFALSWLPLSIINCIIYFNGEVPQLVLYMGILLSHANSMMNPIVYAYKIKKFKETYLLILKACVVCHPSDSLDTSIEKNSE

[3] = target: T3, A1 adenosine receptors (Rattus norvegicus, UniProt P25099); experiment: Displacement of specific [3H]R-PIA binding in rat brain membranes; details: for Ki: [3H]R-PIA, rat brain membranes, n = 3-5, read-out: rA1 Ki ± S.E.M.; for inhibition at 100 µM: read-out: rA1 % inhibition (percentage of specific binding displaced)
T3 construct: from tissue
T3 sequence (P25099 1-326): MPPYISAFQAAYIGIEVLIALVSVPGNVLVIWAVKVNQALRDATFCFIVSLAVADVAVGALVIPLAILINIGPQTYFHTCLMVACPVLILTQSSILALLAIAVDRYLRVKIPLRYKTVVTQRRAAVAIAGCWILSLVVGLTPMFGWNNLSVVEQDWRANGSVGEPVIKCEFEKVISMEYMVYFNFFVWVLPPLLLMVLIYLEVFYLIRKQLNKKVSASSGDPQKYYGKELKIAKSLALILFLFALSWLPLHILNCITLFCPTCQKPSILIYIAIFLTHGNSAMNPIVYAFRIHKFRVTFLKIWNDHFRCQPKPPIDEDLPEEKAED

T1 sequence (P30543 whole entry): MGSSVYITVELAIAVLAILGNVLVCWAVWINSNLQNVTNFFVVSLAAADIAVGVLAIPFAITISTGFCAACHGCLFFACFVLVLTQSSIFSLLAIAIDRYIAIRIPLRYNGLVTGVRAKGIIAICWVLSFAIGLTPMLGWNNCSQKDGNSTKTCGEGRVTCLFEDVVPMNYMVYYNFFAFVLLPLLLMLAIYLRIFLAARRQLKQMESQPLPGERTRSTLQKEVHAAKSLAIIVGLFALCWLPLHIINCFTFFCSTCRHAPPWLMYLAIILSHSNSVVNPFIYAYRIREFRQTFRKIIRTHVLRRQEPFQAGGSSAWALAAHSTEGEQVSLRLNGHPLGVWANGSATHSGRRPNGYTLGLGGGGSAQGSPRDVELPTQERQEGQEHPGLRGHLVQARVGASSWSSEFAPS

SMILES: CCOC(=O)c1c(C)nc(-c2ccccc2)c(C(=O)OCc2ccccc2)c1C#Cc1ccccc1 [Compound 43]
Ki ([2]; Table 2, compounds 33-58): 2.75 ± 0.78 µM
rA1/hA3 ([2]; Table 2): 4.2
rA2A percentage of specific binding displaced ([1]; Table 2, at 10^−4 M): 43 ± 20% (10^−4)
Ki ([3]; Table 2, compounds 33-58): 11.6 ± 4.8 µM

SMILES: CCCOC(=O)c1c(-c2ccccc2)nc(CC)c(C(=O)SCCO)c1CCC [Compound 12]
rA1/hA3 ([2]; Table 2): 210

SMILES: CCCOC(=O)c1c(-c2ccccc2)nc(CC)c2c1CCOC2=O [Compound 29]
hA3 displacement of specific binding (class d) ([2]; Table 2, at 10^−4 M): d (10^−4) (Displacement of <10% of specific binding at the indicated concentration (M).)

SMILES: CCOC(=O)C1=C(C)NC(C2CCCCC2)=C(C(=O)OCc2ccccc2)C1C#Cc1ccccc1 (racemic) [Compound 73, 3-Ethyl 5-benzyl 2-methyl-4-phenylethynyl-6-cyclohexyl-1,4-(±)-dihydropyridine-3,5-dicarboxylate]
inhibition at 100 µM ([1]; Table 3, at 10^−4 M, read-out: rA2A % inhibition (percentage of specific binding displaced)): 20%
inhibition at 100 µM ([3]; Table 3, at 10^−4 M): 22 ± 2%

SMILES: CCCc1c(C(=O)SCC)c(CC)nc(-c2ccccc2)c1C(=O)OCC(F)(F)C(F)(F)F [Compound 24]
rA1/hA3 ([2]; Table 2): 13

SMILES: CCCOC(=O)c1c(-c2ccc(F)cc2)nc(CC)c(C(=O)SCC)c1CCC [Compound 27]
rA1/hA3 ([2]; Table 2): ˜400
rA2A percentage of specific binding displaced ([1]; Table 2, at 10^−4 M): 50% (10^−4)

SMILES: CCOC(=O)C1=C(C)NC(C2CCCC2)=C(C(=O)OCc2ccccc2)C1C#Cc1ccccc1 (racemic) [Compound 72, 3-Ethyl 5-benzyl 2-methyl-4-phenylethynyl-6-cyclopentyl-1,4(±)-dihydropyridine-3,5-dicarboxylate]
Ki ([2]; Table 3): 0.0505 µM
rA1/hA3 ([2]; Table 3): 340
Ki ([1]; Table 3): 7.16 ± 1.56 µM
Ki ([3]; Table 3): 17.1 ± 4.3 µM

SMILES: CCOC(=O)C1=C(C)NC(C2CCC2)=C(C(=O)OCc2ccccc2)C1C#Cc1ccccc1 (racemic) [Compound 71, 3-Ethyl 5-benzyl 2-methyl-4-phenylethynyl-6-cyclobutyl-1,4-(±)-dihydropyridine-3,5-dicarboxylate]
rA2A displacement of specific binding (class d) ([1]; Table 3, at 10^−4 M): d (10^−4) (Displacement of < 10% of specific binding at the indicated concentration (M).)
inhibition at 100 µM ([3]; Table 3, at 10^−4 M): 36 ± 8%

Now from value to compound, other results behind:

Ki ([1]; Table 3): 21.8 ± 7.8 µM
SMILES: CCOC(=O)C1=C(C)NC(c2ccccc2)=C(C(=O)OCC)C1CC (racemic) [Compound 61, 3,5-Diethyl 2-methyl-4-ethyl-6-phenyl-1,4-(±)-dihydropyridine-3,5-dicarboxylate]

rA1/hA3 ([2]; Table 2): 1.7
SMILES: CCOC(=O)c1c(C)nc(-c2ccccc2)c(C(=O)OCC)c1C [Compound 33]

rA1/hA3 ([2]; Table 2): 8.20
SMILES: CCCOC(=O)c1c(-c2ccccc2)nc(CC)c(C(=O)SCC)c1CC [Compound 6]
rA2A displacement of specific binding (class d) ([1]; Table 2, at 10^−5 M): d (10^−5) (Displacement of <10% of specific binding at the indicated concentration (M).)

Ki ([1]; Table 2, compounds 33-58): 2.56 ± 0.13 µM
Ki ([3]; Table 2, compounds 33-58): 9.56 ± 4.09 µM
SMILES: CCOC(=O)c1c(C)nc(-c2ccccc2)c(C(=O)OCC)c1C=O [Compound 41, 3,5-Diethyl 2-methyl-4-formyl-6-phenylpyridine-3,5-dicarboxylate]

rA1/hA3 ([2]; Table 2): 630
SMILES: CCCc1c(C(=O)SCC)c(CC)nc(-c2ccccc2)c1C(=O)OCCCF [Compound 23]

Ki ([2]; Table 2, compounds 33-58): 0.165 ± 0.012 µM
rA1/hA3 ([2]; Table 2): >500
Ki ([1]; Table 2, compounds 33-58): 7.98 ± 1.36 µM
rA1 percentage of specific binding displaced ([3]; Table 2, at 10^−4 M): 36 ± 11% (10^−4)
SMILES: CCOC(=O)c1c(-c2ccccc2)nc(C)c(C(=O)SCCOC)c1CC [Compound 37, 5-Ethyl 2-methyl-4-ethyl-3-[2-methoxy-(ethylsulfanylcarbonyl)]-6-phenylpyridine-5-carboxylate]

Ki ([1]; Table 2, compounds 33-58): 2.4 ± 0.22 µM
SMILES: CCOC(=O)c1c(C)nc(-c2ccccc2)c(C(=O)OCC)c1C=Cc1ccccc1 [Compound 42]
